Experiments:
Type in all cases: cell-based, chicken
[1] = system: ERK and PKC; assay: Western blot of pERK and pPKCα/β (downstream of VEGFR2) in cultured cardiomyocytes; details: inhibitor with peptide Lv
Protocol: (§1) Fertilized eggs (Gallus gallus, Single Comb White Leghorns) were obtained from the Poultry Science Department, Texas A&M University (College Station, Tex., USA). All chicken embryos were maintained at 39° C.±0.5° C. Chicken hearts were harvested at embryonic day 12 (E12) and ventricular cardiomyocytes were dissociated and cultured on poly-D-lysine/collagen double-coated dishes (for biochemical and molecular biological assays) or coverslips (for electrophysiological recordings) as described previously. All cultures were maintained at 39° C.±0.5° C. with 5% CO2. Cells were cultured for 2-3 days and subjected to treatments with vehicle, peptide Lv, or pharmaceutical blockers prior to Western blotting or electrophysiological recordings.
(§2) Treated or control cells were washed and lysed in radioimmunoprecipitation assay (RIPA) buffer, and proteins were denatured by mixing with 2× Laemmli sample buffer for 5 minutes at 95° C. Samples were separated on 10% sodium dodecyl sulfate-polyacrylamide gel electrophoresis (SDS-PAGE) gels and transferred to nitrocellulose membranes. The primary antibodies used in this study were pan L-VGCCα1, ERK1/2, di-phosphorylated ERK1/2, actin, phosphorylated PKC α/βII subunit, phosphorylated tyrosine, VEGFR2, and phosphorylated VEGFR2 at tyr1054/1059. […]

[2] = system: L-VGCC; assay: Whole-cell patch-clamp recordings of L-VGCC currents in cultured embryonic cardiomyocytes
Protocol: as §1
Ventricular cardiomyocytes were cultured for two days. Whole-cell patch-clamp recordings of L-VGCC currents were carried out from spontaneously pulsing cardiomyocytes. The external solution was (in mM): 145 TEACl, 9 BaCl2, 0.5 MgCl2, 5.5 glucose, 0.1 NiCl2, and 5 HEPES, pH 7.4 with CsOH or TEAOH. The pipette solution was (in mM): 125 Cs acetate, 20 CsCl, 3MgCl2, 10 EGTA, and 5 HEPES, pH 7.4 adjusted with CsOH. Currents were recorded at room temperature using an A-M Systems model 2400 patch-clamp amplifier (Sequim, Wash., USA). Signals were low-pass filtered at 2 kHz and digitized at 5 kHz with Digidata 1440A interface and pCLAMP 10.0 software (Molecular Devices, Sunnyvale, Calif., USA). Cardiomyocytes were held at −40 mV, and Ba^2+ currents were recorded immediately after whole-cell patches were formed by gentle suctions. Current-voltage (I-V) relationships were elicited from a holding potential at −40 mV using 200 ms steps (5 seconds between steps) over a range from −60 to +60 mV in 10 mV increments. The current densities were calculated by dividing the current amplitudes (pA) by membrane capacitances (pF).

[3] = system: VEGFR2; assay: Western blot of VEGFR2 autophosphorylation (pVEGFR2-tyr1054/1059) in cultured embryonic cardiomyocytes; details: DMH4 in presence of peptide Lv
Protocol: as §1, §2

CN=c1nc(-c2ccccc2)n(-c2ccccc2)s1 [SCH202676]
inhibition of effects of peptide Lv on pERK and pPKCα/β [1]: did not inhibit the effects of peptide Lv on pERK and pPKCα/β

COc1ccc2c(c[n+](C)c3c4cc5c(cc4ccc23)OCO5)c1OC [chelerythrine]
peptide Lv augmentation of L-VGCC currents ([2]; chelerythrine 2 μM): decreased the peptide Lv augmentation of L-VGCC currents

COc1cccc(-c2cc(=O)c3ccccc3o2)c1N [PD98059]
peptide Lv augmentation of L-VGCC currents ([2]; PD98059 50 μM): decreased the peptide Lv augmentation of L-VGCC currents

DMH4
block of VEGFa augmentation of L-VGCCs ([2]; DMH4 5 μM with VEGFa): blocked the augmentation of L-VGCCs by VEGFa
L-VGCCs, inhibitor by itself ([2]; DMH4 alone, without peptide Lv): did not affect the LVGCCs
block of peptide Lv augmentation of L-VGCC currents ([2]; DMH4 together with peptide Lv): able to block the augmentation effect of peptide Lv on L-VGCC currents
inhibition of peptide Lv-enhanced VEGFR2 phosphorylation [3]: sensitive to DMH4 inhibition
